Laboratory results reported in patent US5212310A (priority 1991, dated 1993).

Legend:
[1] = system: clonazepam-sensitive benzodiazepine binding site; settings: cited from earlier work
GABAa receptor = GABAa receptor binding assay, displacement of 3H-RO15-1788 [3H-Flumazenil] in rat cortical tissue; settings: 0.5 nM 3H-RO15-1788 [3H-Flumazenil], 30 min at 4° C., pH 7.4
Protocol: The pharmaceutical utility of compounds of this invention are indicated by the following assay for GABAa receptor activity.
Assays are carried out as described in Thomas and Tallman (J. Bio. Chem. 156: 9838-9842, J. Neurosci. 3:433-440, 1983). Rat cortical tissue is dissected and homogenized in 25 volumes (w/v) of 0.05M Tris HCl buffer (pH 7.4 at 4° C.). The tissue homogenate is centrifuged in cold (4°) at 20,000×g for 20'. The supernatant is decanted and the pellet is rehomogenized in the same volume of buffer and again centrifuged at 20,000×g. The supernatant is decanted and the pellet is frozen at -20° C. overnight. The pellet is then thawed and rehomogenized in 25 volume (original wt/vol) of buffer and the procedure is carried out twice. The pellet is finally resuspended in 50 volumes (w/vol of 0.05M Tris HCl buffer (pH 7.4 at […]).
Incubations contain […] of radioligand 0.5 nM (^3 H-RO15-1788 [^3 H-Flumazenil] specific activity 80 Ci/mmol), drug or blocker and buffer to a total volume of […]. Incubations are carried for 30 min at 4° C. then are rapidly filtered through GFB filters to separate free and bound ligand. Filters are washed twice with fresh 0.05M Tris HCl buffer (pH 7.4 at 4° C.) and counted in a liquid scintillation counter. […] diazepam is added to some tubes to determine nonspecific binding. Data are collected in triplicate determinations, averaged and % inhibition of total specific binding is calculated. Total Specific Binding=Total-Nonspecific. In some cases, the amounts of unlabeled drugs is varied and total displacement curves of binding are carried out. Data are converted to a form for the calculation of IC50 and Hill Coefficient (nH).

SMILES | block of enhancement of benzodiazepine binding by GABA agonists [1] | IC50 (GABAa receptor) [µM]
CN1CCc2cc3c(cc2[C@H]1[C@@H]1OC(=O)c2c1ccc1c2OCO1)OCO3 [(+) bicuculline] | blocked | –
CN1CCc2cc3c(cc2[C@@H]1[C@H]1OC(=O)c2c1ccc1c2OCO1)OCO3 [(-) bicuculline] | much less active | –
O=c1[nH]c2ccncc2c2nc(-c3ccccc3F)cn12 [Compound 1, 2-(2-Fluorophenyl)-imidazol[1,2-c]pyrido[3,4-e]pyrimidin-5(6H)-one] | – | 0.042
O=c1[nH]c2ccncc2c2nc(-c3ccccc3)cn12 [Compound 2, 2-Phenyl-imidazo[1,2-c]pyrido[3,4-e]pyrimidin-5(6H)-one] | – | 0.169
O=c1[nH]c2cccnc2c2nc(-c3ccccc3)cn12 [Compound 15, 2-Phenylimidazo[1,2-c]pyrido[2,3-e]pyrimidin-5(6H)-one] | – | 0.132
